# Data reported in PMC12418751, “Structural and functional characterization of IdeC, a novel IgG-specific protease of Streptococcus canis” (Infection and Immunity, 2025).
# Target: T1, IdeC (Immunoglobulin G degrading enzyme of S. canis) (Streptococcus canis, UniProt A0A3P5YAY8)
# T1 construct: gene ide; full-length construct 30-339 as printed for the C94S crystal form), His6 tag from pQE30, E. coli M15 pREP, Ni-TED purified, ~35 kDa, mainly monomer; printed PDB entries are of C94S forms
# Assay: feline and canine IgG cleavage, SDS-PAGE
# Assay type: biochemical
# Conditions: 2.5 uM inhibitor, 30 min preincubation at room temperature; IgG 37 C 2.5 h; cysteine protease inhibitor, irreversible (general statement)
# T1 sequence (A0A3P5YAY8 entry or part of it): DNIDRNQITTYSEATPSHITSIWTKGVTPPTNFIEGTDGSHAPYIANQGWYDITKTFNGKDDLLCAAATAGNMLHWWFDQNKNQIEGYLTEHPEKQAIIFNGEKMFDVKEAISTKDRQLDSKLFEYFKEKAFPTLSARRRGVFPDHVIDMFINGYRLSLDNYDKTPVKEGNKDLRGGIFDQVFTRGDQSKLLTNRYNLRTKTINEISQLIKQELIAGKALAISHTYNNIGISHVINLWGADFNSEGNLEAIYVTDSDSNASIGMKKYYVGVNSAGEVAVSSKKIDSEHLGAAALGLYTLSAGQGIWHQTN
compound,measurement,value
CC(C)C[C@H](NC(=O)[C@@H]1O[C@H]1C(=O)O)C(=O)NCCCCN=C(N)N [E-64],"feline and canine IgG cleavage, SDS-PAGE",the cysteine protease inhibitors Iodo and E-64 resulted in weaker cleavage product bands
